Data published in PubChem BioAssay (NCI).
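How tested: cells in 96-well plates exposed to compound for 48 hours at five concentrations. The concentration for full growth arrest is given as TGI.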

Tests used:
Assay in all cases: NCI tumour cell line growth inhibition, 48 h
786-0 renal = tested on: 786-0 renal
A549 NSCLC = tested on: A549 NSCLC
BT-549 breast = tested on: BT-549 breast
CAKI-1 renal = tested on: CAKI-1 renal
HCT-116 colon = tested on: HCT-116 colon
HCT-15 colon = tested on: HCT-15 colon
HS 578T breast = tested on: HS 578T breast
K-562 leukemia = tested on: K-562 leukemia
KM12 colon = tested on: KM12 colon
MALME-3M melanoma = tested on: MALME-3M melanoma
MCF7 breast = tested on: MCF7 breast
MDA-MB-231 breast = tested on: MDA-MB-231 breast
MDA-MB-435 = tested on: MDA-MB-435
NCI/ADR-RES ovarian = tested on: NCI/ADR-RES ovarian
PC-3 prostate = tested on: PC-3 prostate
SF-268 CNS = tested on: SF-268 CNS
SK-MEL-2 melanoma = tested on: SK-MEL-2 melanoma
SN12C renal = tested on: SN12C renal
SNB-19 CNS = tested on: SNB-19 CNS
SW-620 colon = tested on: SW-620 colon

SMILES | TGI (786-0 renal) [µM] | TGI (A549 NSCLC) [µM] | TGI (BT-549 breast) [µM] | TGI (CAKI-1 renal) [µM] | TGI (HCT-116 colon) [µM] | TGI (HCT-15 colon) [µM] | TGI (HS 578T breast) [µM] | TGI (K-562 leukemia) [µM] | TGI (KM12 colon) [µM] | TGI (MALME-3M melanoma) [µM] | TGI (MCF7 breast) [µM] | TGI (MDA-MB-231 breast) [µM] | TGI (MDA-MB-435) [µM] | TGI (NCI/ADR-RES ovarian) [µM] | TGI (PC-3 prostate) [µM] | TGI (SF-268 CNS) [µM] | TGI (SK-MEL-2 melanoma) [µM] | TGI (SN12C renal) [µM] | TGI (SNB-19 CNS) [µM] | TGI (SW-620 colon) [µM]
CCOC(=O)CC(=O)Nc1cccc2sc3ncccc3c(=O)c12 | > 100 | > 100 | > 100 | > 100 | > 100 | > 100 | > 100 | > 100 | > 100 | > 100 | > 100 | > 100 | > 100 | > 100 | > 100 | > 100 | > 100 | > 100 | > 100 | > 100
Cc1cc2c(nn1)CCc1c-2no[n+]1[O-] | > 100 | > 100 | > 100 | > 100 | > 100 | > 100 | > 100 | > 100 | > 100 | > 100 | > 100 | > 100 | > 100 | > 100 | > 100 | > 100 | > 100 | > 100 | > 100 | > 100
Cc1cc(N(CCC#N)CCC#N)ccc1/C=C(\NC(=O)/C=C/c1ccccc1)C(=O)Nc1ccc(Cl)cc1 | > 100 | > 100 | > 100 | 98 | > 100 | > 100 | > 100 | > 100 | > 94 | > 50.9 | > 100 | > 100 | > 100 | > 100 | > 100 | > 100 | > 100 | > 100 | > 100 | > 100
COc1ccc(-c2c(-c3ccccc3)c(C)nc3[nH]c(=S)[nH]c(=S)c23)cc1OC | > 100 | > 100 | > 100 | > 100 | 64.9 | > 100 | > 100 | > 100 | 42.7 | 90.1 | > 100 | > 100 | 74.1 | > 100 | > 100 | > 100 | 48.1 | 83.3 | > 100 | > 100
COC(=O)[C@@H](NC(=O)[C@H](N)Cc1ccc(N(CCCl)CCCl)cc1)C(C)C | 49.7 | > 100 | 65.3 | 7.53 | 44.1 | 72.8 | 77.7 | 40.3 | 66.4 | 6.19 | > 100 | 57.7 | 47.5 | 40.8 | > 100 | 97.1 | > 100 | > 79.7 | > 100 | > 77.3
Nc1nc(Cl)c(N)c(NCC2(CO)CCC(CCc3ccccc3)C2)n1 (stereo not given) | 61.2 | > 100 | 32.6 | 47.2 | 31.3 | 41.8 | > 63.8 | 48 | 28.9 | 30.3 | 34.9 | 34.4 | 27 | > 63.1 | 49.7 | 40.2 | 31.7 | 63.2 | > 94 | 27.2
CSC1(C(=O)O)C2CCC3C2CCC31 (stereo not given) | > 100 | > 100 | > 100 | > 100 | > 100 | > 100 | > 100 | > 100 | > 100 | > 100 | > 100 | > 100 | > 100 | > 100 | > 100 | > 100 | > 100 | > 100 | > 100 | > 100
CC(=Nc1cccc(Cl)c1)c1ccncc1 | > 100 | > 100 | > 100 | > 100 | > 100 | > 100 | > 100 | > 100 | > 100 | > 100 | > 100 | > 100 | > 100 | > 100 | > 100 | > 100 | > 100 | > 100 | > 100 | > 100
CN(C)CCNC(=O)c1cccc2c1Oc1cccc([N+](=O)[O-])c1O2 | 42.6 | 35.9 | 33.6 | 33.7 | 30.6 | > 100 | 40.2 | 45.5 | 44.7 | 28.1 | 40.6 | 20.5 | 32.6 | 56.7 | 29.8 | 42.7 | 49.3 | > 100 | > 100 | 46.2
Cc1cccc(Nc2nc3ccccc3nc2NS(=O)(=O)c2ccccc2)c1 | > 100 | > 100 | > 100 | > 100 | > 100 | 65.9 | > 100 | > 100 | > 100 | > 100 | > 100 | > 100 | > 100 | > 100 | 72 | > 100 | 68.6 | > 100 | 91.5 | > 100
COc1ccc(C(OCC2OC3(COC(c4ccccc4)(c4ccc(OC)cc4)c4ccc(OC)cc4)C(Oc4nc(=O)ccn43)C2O)(c2ccccc2)c2ccc(OC)cc2)cc1 (stereo not given) | > 100 | > 100 | > 100 | > 100 | > 100 | > 100 | 51.8 | > 100 | > 100 | > 100 | > 100 | > 100 | > 100 | > 100 | > 100 | > 100 | > 100 | > 100 | > 100 | > 100
C=CCSC1=N/C(=C\c2ccc(OC)cc2)C(=O)N1CC=C | > 100 | > 100 | 74.4 | > 100 | > 100 | > 100 | > 100 | > 100 | 71.7 | 87.7 | > 100 | > 100 | > 100 | > 100 | 80.1 | > 100 | 91.5 | 62.2 | > 100 | > 100
CNn1c(-c2ccc(C)cc2)n[nH]c1=O | > 100 | > 100 | > 100 | > 100 | > 100 | > 100 | > 100 | > 100 | > 100 | > 100 | > 100 | > 100 | > 100 | > 100 | > 100 | > 100 | > 100 | > 100 | > 100 | > 100
Cc1c(NC(=O)CSC(=S)N(C)C)c(=O)n(-c2ccccc2)n1C | > 100 | > 100 | > 100 | > 100 | > 100 | > 100 | > 100 | > 100 | > 100 | > 100 | > 100 | > 100 | > 100 | > 100 | > 100 | > 100 | > 100 | > 100 | > 100 | > 100
c1ccc(C2=NN=C3C(c4ccccc4)=Nc4ccccc4N3C2)cc1 | > 100 | > 100 | > 100 | > 100 | > 95.6 | > 100 | 67.5 | > 100 | > 100 | 97.9 | > 77.4 | > 100 | 98.7 | > 100 | > 100 | > 60.2 | > 82.2 | > 100 | > 100 | > 100
CC(C)(C)C1=CC(=C2C=Cc3cc(O)ccc3O2)C=C(C(C)(C)C)C1=O | 2.68 | 3.04 | 3.55 | 3.11 | 2.43 | 5.51 | 8.22 | 8.51 | 3.73 | 3.16 | 3.02 | 3.18 | 3.55 | 4.9 | 3.01 | 3.87 | 3.09 | 3.02 | 3.3 | 3.48
CC(=O)N1C(CCc2ccccc2)CC(C)(C=O)C1Cc1ccc(O[Si](C(C)C)(C(C)C)C(C)C)cc1 (stereo not given) | 6.43 | 15.2 | 29.7 | 11.2 | 9.03 | 10.7 | 8.96 | > 26.1 | 11.8 | 27.3 | 5.26 | 11.1 | 8.39 | 31.1 | 12.8 | 15.8 | 8.02 | 9.06 | 18.1 | 14.4
CCO[C@@]12CCC3CC4CC[C@@](OCC)(O1)C4C32 (stereo not given in full) | > 100 | > 100 | > 100 | > 100 | > 100 | > 100 | > 100 | > 100 | > 100 | > 100 | > 100 | > 100 | > 100 | > 100 | > 100 | > 100 | > 100 | > 100 | > 100 | > 100
N#Cc1c(N)nc(SCc2ccccc2)c(C#N)c1-c1ccc(O)cc1 | 30.6 | 48.7 | 24.7 | 28.5 | 25.1 | 30.4 | > 100 | 37.8 | 25.8 | 30 | 30.6 | 28.5 | 25.7 | 45.7 | 33.6 | 66.9 | 35.5 | 33.4 | 41.6 | 41.6
Nc1n[nH]c2c(C(=O)Nc3ccc(Cl)cc3)c(N)n(N)c(=O)c12 | > 100 | > 100 | > 100 | > 100 | > 100 | > 100 | > 100 | > 100 | > 100 | > 100 | > 100 | > 100 | > 100 | > 100 | > 100 | > 100 | > 100 | > 100 | > 100 | > 100
O=C1N/C(=N\N=C\c2ccccc2)C2(CCCCC2)O1 | > 100 | > 100 | > 100 | > 100 | > 100 | > 100 | > 100 | > 100 | > 100 | > 100 | > 100 | > 100 | > 100 | > 100 | > 100 | > 100 | > 100 | > 100 | > 100 | > 100
O=[N+]([O-])C(C(Cl)=C(Cl)Cl)=C(n1nnc2ccccc21)n1nnc2ccccc21 | 20.4 | > 72.4 | 99.6 | > 54.1 | 50.2 | 61.7 | 85.6 | 30.6 | > 70.1 | 49 | > 55.4 | 38.5 | 58.4 | 55.9 | > 67.3 | 70 | > 65.3 | 56.7 | > 100 | 16.6
C[C@H](c1ccccc1)n1c(N)c(-c2nc3ccccc3s2)c2ccc([N+](=O)[O-])cc2c1=O | > 100 | > 100 | > 95.9 | > 85.1 | 10.9 | > 75.4 | > 43.7 | 4.25 | 61.2 | 56.8 | 52.2 | 27.7 | > 79.7 | 22 | > 65.7 | > 100 | > 28.7 | > 100 | > 52.1 | > 100
